Measured values published in patent publication US10577351B2, “Therapeutic polymeric nanoparticles and methods of making and using same” (ASTRAZENECA AB, priority 2013, dated 2020).
Read-outs that look alike come from different tables or passages of the source.

How the values were obtained:
[1] = Acid dissociation constant (pKa); format: physicochemical
bone marrow [2] = test: Bone marrow hypocellularity, pathologist assessment of haematoxylin and eosin sections; format: in vivo, rat; conditions: 25 mg/kg IV; day 5 and 9; FIG. 13
Method: Female nude rats were bred at AstraZeneca, and put into study at a minimum weight of 150 g. Animals were inoculated in the flank with SW620 human tumour cells and dosing started when tumours had reached 0.4-0.9 cm^3. Compounds were dosed intravenously (IV) at 5 ml/kg with either control, AZD1152 or AZD1152 hqpa nanoparticle formulation B or E. AZD1152 was dosed in tris buffer vehicle (days 1-4 IV, each dose at 25 mg/kg) and AZD1152 hqpa nanoparticle formulation was dosed in physiological saline (dosed 25 mg/kg on each of days 1 and 3 IV). At the time points indicated animals were sacrificed and tumour, blood and femur/bone marrow samples taken. Effects of the treatments on the tumour and the bone marrow were scored by a pathologist assessment of haematoxylin and eosin stained sections derived from the femur.
(§1) Rats were injected IV with BIND Placebo (0 mg/kg), or AZD1152/AZD1152 hqpa Formulation E/F1/F2 at 25 mg/kg at the times indicated and sacrificed at the times indicated.
Bone marrows samples were extracted from each animal. Firstly samples of bone marrow were processed for pathological assessment. […] Bone marrow integrity was scored by the pathologist. […]
Bone marrow samples were extracted from each animal and processed for pathological assessment. […] Bone marrow integrity was scored by the pathologist. […]

bone marrow [3] = test: Bone marrow cellularity by FACS (total nucleated cells); format: in vivo, rat; conditions: 25 mg/kg IV; FIG. 14
Method: as §1
Secondly bone marrow flushes taken to examine bone marrow cellularity by FACs. At termination bone marrow from each Femur was taken into 50% FBS and 50% PBS on ice. Cells were pelleted by centrifugation at 4° C. and re-suspended in PBS. Cells were pelleted again at 4° C. and re-suspended in PBS. 50 μl of LDS-751 (0.5 mg/ml in methanol) was added and cells vortexed. Finally the cells were filtered through a 50 micron filter into a FACS tube. Samples were analysed on a FACS Canto (Beckton Dickinson). A bone marrow hypocellularity is represented as a total of nucleated cells relative to untreated controls. The percentage cellularity of each bone marrow sample in each individual animal are shown. The dotted line represents the lowest percentage total nucleated cell value seen in animals receiving only vehicle (empty nanoparticle).

[4] = test system: SW620 human tumour xenograft; test: SW620 anti-tumour study in male nude mouse; format: in vivo
Method: Male nude mice were bred at AstraZeneca. Animals were inoculated in the flank with SW620 human tumour cells, and then randomized onto study when tumours reached approximately 0.25 cm^3. AZD1152 was dosed in tris buffer vehicle at the concentration indicated. AZD1152 hqpa nanoparticle formulation E was dosed in physiological saline. Previous pre-clinical work and methodologies with AZD1152 are published in Wilkinson et al, Clinical Cancer Research 2007 (13) 3682. […] In this study AZD1152 was dosed on day 0-3 at 25 mg/kg (total 100 mg/kg). Formulation E was dosed at a variety of different schedules as described above.

[5] = test system: histone H3 phosphorylation on Ser10 (pHH3), surrogate marker of Aurora B kinase activity; test: Tumour phospho-histone H3 (pHH3) biomarker in SW620 tumours by flow cytometry; format: in vivo, rat; conditions: 24 hrs post single dose 25 mg/kg IV
Method: This experiment compares the effect of Formulation E, F1 and F2 on a phospho-histone H3 phosphorylation (pHH3) in SW620 tumours. AZD1152 was included as a positive control. The activity was measured as an inhibition of histone H3 phosphorylation on Ser^10 (pHH3 as a sensitive, highly dynamic surrogate marker of Aurora B kinase activity). Average level of pHH3 positivity [%] was calculated for the cells in G2/M phase of the cell cycle for each treatment group at 24 hrs and 96 hrs post 1st dose and compared to the pHH3 level observed for the cells in G2/M cell cycle phase that were extracted from the tumours treated with BIND Placebo (referred here as 100%). Statistical significance was calculated using Student t-test assuming unequal variances (*p<0.05, **p<0.01, ***p<001, n.s. P>0.05). […]
The activity was measured as an inhibition of histone H3 phosphorylation on Ser10 (pHH3 as a sensitive, highly dynamic surrogate marker of Aurora B kinase activity). Average level of pHH3 positivity [%] was calculated for the cells in G2/M phase of the cell cycle for each treatment group at 24, 48, 72, 96 and 120 hrs post 1 dose and compared to the pHH3 level observed for the cells in G2/M cell cycle phase that were extracted from the tumours treated with BIND Placebo (referred here as 100%). […]

[6] = reported (SciFinder); cited from earlier work
[7] = reported (SciFinder); cited from earlier work; remark: listed apart in the source

SMILES: CCN(CCO)CCCOc1ccc2c(Nc3cc(CC(=O)Nc4cccc(F)c4)[nH]n3)ncnc2c1 [AZD1152 hqpa, 2-(3-((7-(3-(ethyl(2-hydroxyethyl)amino)propoxy)quinazolin-4-yl)amino)-1H-pyrazol-5-yl)-N-(3-fluorophenyl)acetamide]
- pKa1 [1]: 5.7
- pKa2 [1]: 8.46

SMILES: CCN(CCCOc1ccc2c(Nc3cc(CC(=O)Nc4cccc(F)c4)n[nH]3)ncnc2c1)CCOP(=O)(O)O [AZD1152, 2-(ethyl(3-((4-((5-(2-((3-fluorophenyl)amino)-2-oxoethyl)-1H-pyrazol-3-yl)amino)quinazolin-7-yl)oxy)propyl)amino)ethyl dihydrogen phosphate]
- bone marrow hypocellularity score (0-4) (bone marrow [2]): large impact on bone marrow
- bone marrow cellularity, total nucleated cells relative to untreated controls (bone marrow [3]): large impact on bone marrow
- efficacy of IV 25 mg/kg for 4 days (100 mg/kg total dose) ([4]; SW620 xenograft model in rat and mouse): maximal efficacy
- dose at which maximum activity was achieved ([4]; total dose equivalent, SW620): 100 mg/kg
- proportion of pHH3-positive cells within G2/M phase ([5]; FIG. 12): maximally suppressed
- proportion of pHH3-positive cells within G2/M phase ([5]; FIG. 15): maximally suppressed

SMILES: O=C(O)c1cc2ccccc2c(Cc2c(O)c(C(=O)O)cc3ccccc23)c1O [pamoic acid, 4,4′-methylenebis[3-hydroxy-2-naphthoic acid]]
- log P [6]: 6.169
- pKa1 [7]: 2.67
